The text below walks through data of US20240156960A1 (priority 2020, published 2024).

Read-outs that look alike come from different tables or passages of the source.

In series [1] the test system is SARS-CoV2. The note with it: SARS-CoV2 listed as bound; cited from earlier work.
Series [2] relates to SARS-CoV2. The following applies: SARS-CoV2 listed as neutralised; cited from earlier work.
The test system of the next series is mouse IGF-1. The experiment in a line: Serum levels of mouse IGF-1 by ELISA (hGH bioactivity). The series is classed as in vivo. The following applies: CD-1 mice, day 127 after injection (Example 10). A general note: ELISA stands for enzyme-linked immunosorbent assay.
Series [3] has as its system SARS-CoV2. The following applies: Protein + Epitope: S; literature source; cited from earlier work.
Series [4] has as its system SARS-CoV1. The following applies: cited from earlier work.
The test system of series [5] is coronavirus named in the cell (SARS-CoV2, SARS-CoV1). The note with it: cited from earlier work.
The test system of series [6] is coronavirus named in the cell (SARS-CoV2, SARS-CoV1), S protein. The note with it: cited from earlier work.
The test system of series [7] is SARS-CoV1. The following applies: cited from earlier work. The source holds these as a separate data set.
The target of another series is SARS-CoV2 S; RBD (Severe acute respiratory syndrome coronavirus 2, UniProt P0DTC2). The note with it: epitope S; cited from earlier work.
The nature of series [8]: Serum ALT/AST levels (toxicity) after liposome and DNA injection.
A short description of series [9]: Serum hG-CSF protein by ELISA after DOTAP liposomes, hG-CSF plasmid DNA and immuno-modulating agents. The series is classed as in vivo, CD-1 mice.
For series [10], the system named is SARS-CoV2. The note with it: source Seth Zost et al., 2020; cited from earlier work.
Series [11] in a line: Critical toxicity markers after dexamethasone pretreatment and IV DNA vector. The note with it: pre-dosed IP 1 to 40 mg/kg.
For series [12] the following is noted: mouse, in vivo.
[13] abbreviates: IP 2 hours prior to lipid and DNA injection (Example 20 Part 4).
[14] abbreviates: agent in liposomes pre-injected IP prior to cationic liposomes (Example 16 Part 3).
The mark [15] stands for this setting: agent incorporated into cationic liposomes (900 nmol DOTAP SUV), 70 ug hG-CSF DNA, day 1.

Turning to CB6, in the series with SARS-CoV2 [1], the “Binds to” value was “SARS-CoV2”. In the series with SARS-CoV2 [2], the “Neutralising Vs” value is listed as “SARS-CoV2”. In the case of hGH, the “bioactivity of cDNA-encoded hGH protein (increase of endogenous mouse IGF-1)” value with mouse IGF-1 was “fully bioactive”. In the case of C006, the “Binds to” value in the series on SARS-CoV2 [3] is on record as “SARS-CoV2”. Also, the “Not Neutralising Vs” value in the series with SARS-CoV1 [4] is reported as “SARS-CoV1”. On to C013, for which the “Binds to” value in the series with SARS-CoV2 [3] is listed as “SARS-CoV2”. In addition, in the series on SARS-CoV1 [4], the “Not Neutralising Vs” value is reported as “SARS-CoV1”. As for 4A8, the “Neutralising Vs” value in [5] is recorded as “SARS-CoV2”. In [6], the “Binds to” value is listed as “SARS-CoV2”. For the compound C018, the “Not Neutralising Vs” value in the series on SARS-CoV1 [7] is recorded as “SARS-CoV1,”. The “Binds to” value with SARS-CoV2 S; RBD is “SARS-CoV2”. As to N-Acetyl-De-O-Sulfated Heparin [NSH], the “toxicity (serum ALT/AST)” value in series [8] (IP 0.25 or 1 mg per mouse, 2 hours pre or 2 hours post lipid and DNA injection) is given as “reduce toxicity”; in series [8] (setting [13]) it was “further reducing its toxicity”. Besides, the “gene expression (serum hG-CSF)” value in series [9] (setting [13]) is “further increase gene expression”. C002: the “Binds to” value in the series on SARS-CoV2 [3] was “SARS-CoV2”. Further, the “Not Neutralising Vs” value in the series on SARS-CoV1 [4] is “SARS-CoV1”. As to C112, the “Binds to” value with SARS-CoV2 S; RBD is given as “SARS-CoV2”. On to CoV2-2196, for which the “Binds to” value in the series on SARS-CoV2 [10] was “SARS-CoV2”. As to C029, the “Not Neutralising Vs” value with SARS-CoV1 [7] is reported as “SARS-CoV1,”. Besides, the “Binds to” value with SARS-CoV2 S; RBD is recorded as “SARS-CoV2”.

C102: the “Binds to” value with SARS-CoV2 S; RBD was “SARS-CoV2”.

Turning to C021, the “Not Neutralising Vs” value with SARS-CoV1 [7] is “SARS-CoV1,”. Also, the “Binds to” value with SARS-CoV2 S; RBD is given as “SARS-CoV2”. Regarding C005, the “Binds to” value with SARS-CoV2 [3] was “SARS-CoV2”. For the same compound, the “Not Neutralising Vs” value in the series with SARS-CoV1 [4] is given as “SARS-CoV1”. Consider `C[C@@H]1C[C@H]2[C@@H]3CCC4=CC(=O)C=C[C@]4(C)[C@@]3(F)[C@@H](O)C[C@]2(C)[C@@]1(O)C(=O)CO` [dexamethasone], for which the critical toxicity markers result in series [11] is listed as “at or closely approximating background control levels”.

Consider CoV2-2130, for which the “Binds to” value in the series on SARS-CoV2 [10] is on record as “SARS-CoV2”. For C016, the “Binds to” value with SARS-CoV2 [3] is “SARS-CoV2”. Moreover, the “Not Neutralising Vs” value with SARS-CoV1 [4] is listed as “SARS-CoV1,”. For the compound C107, the “Not Neutralising Vs” value in the series with SARS-CoV1 [7] was “SARS-CoV1,”. In addition, in the series with SARS-CoV2 S; RBD, the “Binds to” value is “SARS-CoV2”. On to C119, for which the “Binds to” value with SARS-CoV2 S; RBD was “SARS-CoV2”.

B38: the “Binds to” value with SARS-CoV2 [3] was “SARS-CoV2”. For the compound C121, in the series with SARS-CoV2 S; RBD, the “Binds to” value is “SARS-CoV2”. Besides, in [12], the “duration of fully neutralizing serum levels of each SARS-CoV2-specific mAb” value is on record as “at least 134 days”. For BD23, the “Binds to” value in the series with SARS-CoV2 [3] is given as “SARS-CoV2”.

For the compound “dexamethasone 21-palmitate [dexamethasone palmitate]”, the “toxicity (ALT levels)” value in [8] (setting [14]) and in series [8] (setting [15]) was “further decrease toxicity” each time. For the same compound, in series [9] (5 mole percent in DOTAP SUV, otherwise ineffective hG-CSF-DNA dose (Example 16 Part 6)), the “peak levels of gene expression (serum hG-CSF)” value is “further increase peak levels of gene expression”. Moreover, the “gene expression (serum hG-CSF)” value in series [9] (setting [14]) and in [9] (setting [15]) was “further increase gene expression” throughout. C003: the “Binds to” value in the series with SARS-CoV2 [3] is given as “SARS-CoV2”. In addition, the “Not Neutralising Vs” value with SARS-CoV1 [4] is listed as “SARS-CoV1”.
